From publication PMC9137581, “Identification of a Novel Class of Anti-Melanogenic Compounds, (Z)-5-(Substituted benzylidene)-3-phenyl-2-thioxothiazolidin-4-one Derivatives, and Their Reactive Oxygen Species Scavenging Activities” (Antioxidants, 2022)

Assays:
[1] = Calculated log p (ChemDraw Ultra 12.0); settings: from calculated log p 3.16 vs. –2.45
Excerpt: In order to determine how well the (Z)-BPTT analogs are absorbed by skin, their log p (partition coefficient) values were examined using ChemDraw Ultra Ver. 12.0.

[2] = DPPH radical scavenging activity assay; settings: 1 mM, 30 min in the dark
Experimental: The effects of the (Z)-BPTT analogs 1–13 on DPPH radical scavenging activities were investigated as previously described with slight modification. Briefly, 180 μL of 0.2 mM DPPH in methanol was added to 96-well plates and then 20 μL of one of the (Z)-BPTT analogs 1–13 (10 mM in DMSO) or the positive control (10 mM L-ascorbic acid in distilled water) was added and mixed. The 96-well plates were incubated in the dark for 30 min and then the well optical densities were measured at 517 nm using a VersaMax™ microplate reader (Molecular Devices, Sunnyvale, CA, USA). All of these experiments were performed independently in triplicate. The DPPH radical scavenging activities of the analogs were calculated using the following formula:Scavenging activity (%) = (Ac − As) × 100/Ac where Ac is the optical density of the non-treated control and As is the optical density of the tested material.
The DPPH (2,2-diphenyl-1-picrylhydrazyl) radical scavenging abilities of the (Z)-BPTT analogs were investigated using L-ascorbic acid (vitamin C) as a positive control. The final concentrations of the analogs and of the positive control in the test samples and in the DPPH methanol solution were 1 and 0.18 mM, respectively. The scavenging activities of the analogs were assessed by measuring their optical densities at 517 nm after standing the samples in the dark for 30 min.

[3] = biological target: T1, cellular tyrosinase in B16F10 cells (Mus musculus, UniProt P11344); experiment: Cellular tyrosinase activity (L-DOPA oxidation in lysates); format: cell-based, murine; settings: for inhibition of α-MSH plus IBMX-induced cellular tyrosinase activity compared with kojic acid: analog at 20 µM
T1 construct: endogenous in cells; host or cells: B16F10 murine melanoma cells (ATCC), stimulated with α-MSH and IBMX
T1 sequence (P11344 19-533): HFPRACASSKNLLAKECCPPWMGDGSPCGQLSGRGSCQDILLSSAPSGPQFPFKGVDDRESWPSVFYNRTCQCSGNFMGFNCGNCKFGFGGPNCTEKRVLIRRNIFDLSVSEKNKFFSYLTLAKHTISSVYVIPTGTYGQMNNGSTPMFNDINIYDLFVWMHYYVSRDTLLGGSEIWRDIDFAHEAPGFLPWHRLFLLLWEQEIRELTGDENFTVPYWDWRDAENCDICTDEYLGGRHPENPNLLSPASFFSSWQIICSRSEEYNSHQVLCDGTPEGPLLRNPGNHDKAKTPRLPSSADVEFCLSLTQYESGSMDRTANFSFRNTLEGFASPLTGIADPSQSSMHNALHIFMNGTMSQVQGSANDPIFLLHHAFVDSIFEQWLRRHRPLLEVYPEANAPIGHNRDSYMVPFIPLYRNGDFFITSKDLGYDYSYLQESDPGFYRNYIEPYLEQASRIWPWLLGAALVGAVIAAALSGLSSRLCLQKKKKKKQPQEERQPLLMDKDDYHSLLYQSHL
Experimental: The cellular tyrosinase activity was examined by assessing the oxidation rate of L-DOPA, as was previously described, with a slight modification. In brief, B16F10 cells were seeded at a density of 1 × 10^5 cells/well in a 6-well plate and allowed to adhere to the well bases using the same conditions that were used for cell culturing. […] After incubation for 48 h under the same conditions that were used for cell culturing, the cells were rinsed twice with PBS and then exposed to 100 µL of a lysis buffer solution (90 µL of 50 mM phosphate buffer in pH 6.5, 5 µL of 2 mM PMSF, and 5 µL of 20% Triton X-100) and held for 30 min at −80 °C. After defrosting, the cell lysates were centrifuged at 12,000 rpm for 30 min at 4 °C. Then, 10 mM L-DOPA (20 µL) was mixed with the supernatants (80 µL) of the lysates in a 96-well plate. The absorbances of these mixtures were measured at 492 nm every 10 min for 1 h at 37 °C using a microplate reader (VersaMax™, Molecular Devices, Sunnyvale, CA, USA). All of these experiments were conducted individually in triplicate. […] Briefly, B16F10 cells were seeded in 6-well culture plates and pretreated with four different concentrations (0, 5, 10, or 20 µM) of each of the four analogs for 1 h, and then the cells were co-stimulated with α-MSH and IBMX for 48 h at 37 °C so as to increase their cellular tyrosinase activity. Their optical densities (ODs) were then measured using a microplate reader at 492 nm in order to quantify the dopachrome production. The inhibitory effect of each analog on cellular tyrosinase activity was evaluated using these ODs. Kojic acid (20 µM) was used as a positive control.

mushroom tyrosinase = biological target: T2, mushroom tyrosinase (Agaricus bisporus, UniProt C7FF04); experiment: Mushroom tyrosinase inhibition assay (L-tyrosine substrate); format: biochemical; settings: for IC50: L-tyrosine substrate, means ± SEMs of triplicate determinations; for potency of mushroom tyrosinase inhibition relative to kojic acid: ratio of IC50 values versus kojic acid
T2 construct: purchased Sigma-Aldrich
Experimental: In order to examine the inhibitory effect of the (Z)-BPTT analogs on tyrosinase activity, commercially available mushroom tyrosinase (Sigma-Aldrich, St. Louis, MO, USA) was used. The mushroom tyrosinase-inhibitory activities of the analogs were determined as described previously with modification. Briefly, 20 µL (20 units) of an aqueous mushroom tyrosinase solution was added to each well of a 96-well microplate containing 170 µL of a substrate mixture consisting of 345 μM of L-tyrosine solution, 17.2 mM phosphate buffer (pH 6.5), and 10 µL of a (Z)-BPTT analog solution at different concentrations or 10 µL of a kojic acid solution (2, 10, or 50 μM). After incubating the assay mixtures for 30 min at 37 °C, the remaining tyrosinase activities were calculated from the amounts of dopachrome that were formed as determined by measuring their absorbance at 492 nm using a microplate reader (VersaMax™, Molecular Devices, Sunnyvale, CA, USA). The curves of the IC50 values that were derived from the X-axis of the inhibitor concentration versus the amount of product that was produced were determined by aligning the dose–response curve with the Y-axis. Inhibition experiments were performed in triplicate using three to six different concentrations of the (Z)-BPTT analogs or kojic acid. Log–linear curves and their equations were determined by using inhibition percentages at three to six analog concentrations. The individual IC50 values were determined by reading the concentrations on the Y-axis at 50% inhibition. The results are the means of three independent experiments.
The tyrosinase-inhibitory activities were screened against mushroom tyrosinase using L-tyrosine as a substrate, as previously described. Kojic acid, a representative tyrosinase inhibitor, was used as a positive control. […]. All 13 of the (Z)-BPTT analogs inhibited tyrosinase activity in a concentration-dependent manner. The IC50 values are shown in Table 2, along with the analog substitutions.

T2 sequence (C7FF04 1-392 limits assumed): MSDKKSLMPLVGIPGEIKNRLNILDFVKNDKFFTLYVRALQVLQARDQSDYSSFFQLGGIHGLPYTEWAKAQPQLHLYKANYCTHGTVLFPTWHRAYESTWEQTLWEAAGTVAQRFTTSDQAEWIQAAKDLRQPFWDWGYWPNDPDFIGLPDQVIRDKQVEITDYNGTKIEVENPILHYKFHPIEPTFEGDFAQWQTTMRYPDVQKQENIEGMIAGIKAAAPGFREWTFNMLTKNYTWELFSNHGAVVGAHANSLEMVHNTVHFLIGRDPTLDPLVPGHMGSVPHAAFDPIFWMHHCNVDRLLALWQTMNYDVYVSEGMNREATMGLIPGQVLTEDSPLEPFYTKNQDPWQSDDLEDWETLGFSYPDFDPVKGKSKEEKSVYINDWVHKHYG

SMILES | partition coefficient relative to kojic acid [1] | DPPH radical scavenging activity [2] | cellular tyrosinase activity as percentage of non-treated control ([3]; 10 µM, α-MSH plus IBMX co-stimulated) | inhibition of cellular tyrosinase activity compared with kojic acid ([3]; analog at 5 µM) | IC50 (mushroom tyrosinase) | inhibition of α-MSH plus IBMX-induced cellular tyrosinase activity compared with kojic acid [3] | enhancement of inhibitory activity relative to analog 4 (mushroom tyrosinase; ratio of IC50 values versus analog 4) | potency of mushroom tyrosinase inhibition relative to kojic acid (mushroom tyrosinase)
O=C1/C(=C/c2ccc(O)c(O)c2)SC(=S)N1c1ccccc1 [Analog 2, (Z)-5-(3,4-Dihydroxybenzylidene)-3-phenyl-2-thioxothiazolidin-4-one] | 10^5 fold | 92.2% | < 100% | significantly inhibited tyrosinase activity more than kojic acid did at 20 µM | 1.38 ± 0.11 µM |  |  | 
COc1ccc(/C=C2\SC(=S)N(c3ccccc3)C2=O)cc1O [Analog 6, (Z)-5-(3-Hydroxy-4-methoxybenzylidene)-3-phenyl-2-thioxothiazolidin-4-one] |  | 27.2% |  |  | 1.88 ± 0.7 µM | more than kojic acid at 20 µM | 43 fold | 
O=C1/C(=C/c2ccc(O)cc2O)SC(=S)N1c1ccccc1 [Analog 3, (Z)-5-(2,4-Dihydroxybenzylidene)-3-phenyl-2-thioxothiazolidin-4-one] | 10^5 fold | 57.0% |  |  | 0.59 ± 0.03 µM | more than kojic acid at 20 µM |  | 29 fold
O=C1/C(=C/c2ccc(O)cc2)SC(=S)N1c1ccccc1 [Analog 1, (Z)-5-(4-Hydroxybenzylidene)-3-phenyl-2-thioxothiazolidin-4-one] |  | 14.7% |  |  | 1.45 ± 0.04 µM | more than kojic acid at 20 µM |  | 12 fold
